Measured values from ChEMBL document CHEMBL2380296, “Structure-based design and optimization of 2-aminothiazole-4-carboxamide as a new class of CHK1 inhibitors” (Bioorg Med Chem Lett, 2013).

What was measured:
[1] = molecular target: T1, Serine/threonine-protein kinase Chk1 (Homo sapiens, UniProt O14757)
T1 sequence (O14757 whole entry): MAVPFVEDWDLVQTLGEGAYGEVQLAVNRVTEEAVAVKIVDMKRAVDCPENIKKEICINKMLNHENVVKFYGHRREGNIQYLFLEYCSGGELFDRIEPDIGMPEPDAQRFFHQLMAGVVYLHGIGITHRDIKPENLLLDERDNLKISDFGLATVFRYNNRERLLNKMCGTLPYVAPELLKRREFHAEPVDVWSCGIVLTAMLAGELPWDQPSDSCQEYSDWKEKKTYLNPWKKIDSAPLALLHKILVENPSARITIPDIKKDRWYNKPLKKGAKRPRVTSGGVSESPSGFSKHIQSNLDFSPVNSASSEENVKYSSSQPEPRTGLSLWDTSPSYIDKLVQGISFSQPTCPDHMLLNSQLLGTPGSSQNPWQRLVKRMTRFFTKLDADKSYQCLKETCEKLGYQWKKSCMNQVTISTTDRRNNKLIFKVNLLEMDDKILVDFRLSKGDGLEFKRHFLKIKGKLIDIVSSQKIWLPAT

[2] = molecular target: T1, Serine/threonine-protein kinase Chk1; experiment: Inhibition of CHK1 in human U2OS cells assessed as phosphorylation of H2AX after 2 hrs by FITC/propidium iodide staining-based immunofluorescence assay in presence of hydroxyurea; assay type: cell-based

| IC50 [1] | EC50 [2] | SMILES |
| --- | --- | --- |
| 2 nM | 100 nM | O=C(Nc1cnccc1N1CCNCC1)c1csc(N2Cc3ccccc3C2=O)n1 |
| 8 nM | 900 nM | O=C(Nc1cnccc1N1CCNCC1)c1csc(N2Cc3ccccc3C2)n1 |
| 190 nM |  | O=C(Nc1ccccc1N1CCNCC1)c1csc(N2Cc3ccncc3C2)n1 |
| 5 nM | 250 nM | COc1ccc2c(c1)C(=O)N(c1nc(C(=O)Nc3ccccc3N3CCNCC3)cs1)C2 |
| 29 nM |  | COc1cc2c(cc1OC)CN(c1nc(C(=O)Nc3ccccc3N3CCNCC3)cs1)CC2 |
| 281 nM |  | COc1ccc2c(c1)C(=O)N(c1nc(C(=O)Nc3ccnnc3N3CCNCC3)cs1)C2 |
| 4000 nM |  | O=C(Nc1ccccc1N1CCNCC1)c1csc(N2CCc3[nH]cnc3C2)n1 |
| 46 nM |  | COc1ccc2c(c1)C(=O)N(c1nc(C(=O)Nc3cncnc3N3CCNCC3)cs1)C2 |
| 5200 nM |  | COc1ccc2c(c1)C(=O)N(c1nc(C(=O)Nc3cnc4ccccc4c3N3CCNCC3)cs1)C2 |
| 10 nM | 1000 nM | COc1ccc2c(c1)C(=O)N(c1nc(C(=O)Nc3cnc(C)cc3N3CCNCC3)cs1)C2 |
| 280 nM |  | Cc1nc2c(s1)CN(c1nc(C(=O)Nc3ccccc3N3CCNCC3)cs1)C2 |
| 62 nM |  | O=C(Nc1ccccc1N1CCNCC1)c1csc(N2Cc3cn[nH]c3C2)n1 |
| 5700 nM |  | Cc1ncc2c(n1)CN(c1nc(C(=O)Nc3ccccc3N3CCNCC3)cs1)C2 |
| 980 nM |  | COc1ccc(-c2cc(N)n(-c3nc(C(=O)Nc4ccccc4N4CCNCC4)cs3)n2)cc1 |
| 3 nM | 75 nM | O=C(Nc1cnccc1N1CCNCC1)c1csc(-n2ncc3ccccc32)n1 |
| 4 nM | 6000 nM | COc1ccc2c(c1)C(=O)N(c1nc(C(=O)Nc3cc(F)ccc3N3CCNCC3)cs1)C2 |

Further lines, the compound ahead of its results:

| SMILES | IC50 [1] | EC50 [2] |
| --- | --- | --- |
| CN(Cc1ccccc1)c1nc(C(=O)Nc2ccccc2N2CCNCC2)cs1 | > 50000 nM |  |
| O=C(Nc1ccccc1N1CCNCC1)c1csc(-n2nnc3ccccc32)n1 | 110 nM |  |
| O=C(Nc1ccccc1N1CCNCC1)c1csc(N2Cc3ccccc3C2)n1 | 8 nM | 1400 nM |
| O=C(Nc1ccccc1N1CCNCC1)c1csc(Nc2cc(-c3ccccc3)n[nH]2)n1 | 14 nM | 7500 nM |
| O=C(Nc1cnccc1N1CCNCC1)c1csc(-c2ccc(Oc3ccccc3)cc2)n1 | 430 nM |  |
| O=C(Nc1ncccc1N1CCNCC1)c1csc(-c2ccc3c(c2)CCO3)n1 | 4700 nM |  |
| O=C(Nc1ccccc1N1CCNCC1)c1csc(-n2cccn2)n1 | 120 nM |  |
| O=C(Nc1ccccc1N1CCNCC1)c1csc(N2CCc3sccc3C2)n1 | 39 nM |  |
| O=C(Nc1ccncc1N1CCNCC1)c1csc(-c2ccc3c(c2)CCO3)n1 | 230 nM |  |
| O=C(Nc1cnccc1N1CCNCC1)c1csc(-c2ccc3occc3c2)n1 | 28 nM |  |
| O=C(Nc1cnccc1N1CCNCC1)c1csc(-c2ccc3[nH]ccc3c2)n1 | 10 nM | 1000 nM |
| O=C(Nc1ccccc1N1CCNCC1)c1csc(NCc2ccccc2)n1 | 11000 nM |  |
| O=C(Nc1cnccc1N1CCNCC1)c1csc(Nc2n[nH]c3ccccc23)n1 | 3 nM | 40 nM |
| O=C(Nc1ccccc1N1CCNCC1)c1csc(NC2Cc3ccccc3C2)n1 | 6900 nM |  |
| Cn1nc(-c2ccccc2)cc1Nc1nc(C(=O)Nc2ccccc2N2CCNCC2)cs1 | 4500 nM |  |
| O=C(Nc1ccccc1N1CCNCC1)c1csc(N2CCc3c(F)ccc(F)c3C2)n1 | 1300 nM |  |
| O=C(Nc1ccccc1N1CCNCC1)c1csc(N2CCc3ccccc3C2)n1 | 38 nM |  |
| O=C(Nc1cnccc1N1CCNCC1)c1csc(-c2ccc3sccc3c2)n1 | 7 nM | 1250 nM |
| O=C(Nc1ccccc1N1CCNCC1)c1csc(Nc2ccccc2)n1 | 92 nM |  |
| O=C(Nc1cccnc1N1CCNCC1)c1csc(-c2ccc3c(c2)CCO3)n1 | 870 nM |  |
| COc1ccc(-c2cc(Nc3nc(C(=O)Nc4ccccc4N4CCNCC4)cs3)[nH]n2)cc1 | 3 nM | 3750 nM |
| O=C(Nc1ccccc1N1CCNCC1)c1csc(N2CCCc3ccccc32)n1 | 38 nM |  |
| O=C(Nc1cnccc1N1CCNCC1)c1csc(-c2ccc3c(c2)CCO3)n1 | 55 nM |  |
| O=C(Nc1ccccc1N1CCNCC1)c1csc(-n2ccnc2)n1 | 10000 nM |  |
| O=C(Nc1cnccc1N1CCNCC1)c1csc(-c2cc3ccccc3s2)n1 | 3 nM | 1000 nM |
| O=C(Nc1ccccc1N1CCNCC1)c1csc(-n2ncc3ccccc32)n1 | 2 nM | 750 nM |
| CN(c1ccccc1)c1nc(C(=O)Nc2ccccc2N2CCNCC2)cs1 | 240 nM |  |
| O=C(Nc1ccccc1N1CCNCC1)c1csc(Nc2n[nH]c3ccccc23)n1 | 2 nM | 350 nM |
